The values below are quoted from earlier work in PubChem BioAssay AID1259409 (Chemical Carcinogenesis Research Information System (CCRIS), 2018).

SMILES strings stand for the structures.

In this data set the test system is rodent chemically induced tumor inhibition, incidence and multiplicity. Briefly: CCRIS tumor inhibitor studies. The settings on record: Carcinogen: 7,12-DIMETHYLBENZ[A]ANTHRACENE, 57-97-6, Dose [Inhibitor]: 0, Route [Inhibitor]: ORAL, Species: FISH, FEMALE, Promoter: NONE USED.

Turning to `O=c1oc2c(O)c(O)cc3c(=O)oc4c(O)c(O)cc1c4c23`, the “tumour outcome (control, treated, inhibition, significance)” value (1000 PPM IN DIET FOR 17 WK BEGINNING POST CARCINOGEN TREATMENT (STUDY DURATION: 42 WK), Strain/Sex: RAINBOW TROUT/ MALE, Target Tissue: Type of Lesion: SWIM BLADDER: TUMOR, Dose [Carcinogen]: 5.5 PPM IN WATER FOR 1 HR) was 15%, 6%, 60%, p<0.05; the “tumour outcome (control, treated, inhibition, significance)” value (1000 PPM IN DIET FOR 17 WK BEGINNING POST CARCINOGEN TREATMENT (STUDY DURATION: 42 WK), Strain/Sex: RAINBOW TROUT/MALE, Target Tissue: Type of Lesion: LIVER: TUMOR, Dose [Carcinogen]: 5.5 PPM IN WATER FOR 1 HR) is reported as 5%, 11%, -120%, p<0.05; the “tumour outcome (control, treated, inhibition, significance)” value (1000 PPM IN DIET FOR DURATION OF STUDY BEGINNING CONCURRENTLY WITH CARCINOGEN TREATMENT (STUDY DURATION: 42 WK), Strain/Sex: RAINBOW TROUT/ MALE, Target Tissue: Type of Lesion: STOMACH: TUMOR, Dose [Carcinogen]: 750 PPM IN DIET FOR 7 WK) is given as 85%, 78%, 8%, p<0.05; the “tumour outcome (control, treated, inhibition, significance)” value (1000 PPM IN DIET FOR DURATION OF STUDY BEGINNING CONCURRENTLY WITH CARCINOGEN TREATMENT (STUDY DURATION: 42 WK), Strain/Sex: RAINBOW TROUT/ MALE, Target Tissue: Type of Lesion: SWIM BLADDER: TUMOR, Dose [Carcinogen]: 750 PPM IN DIET FOR 7 WK) is recorded as 1%, 1%, 0%, not significant; the “tumour outcome (control, treated, inhibition, significance)” value (1000 PPM IN DIET FROM 3 WK PRIOR TO CARCINOGEN TREATMENT TO 3 D POST CARCINOGEN TREATMENT (STUDY DURATION: 42 WK), Strain/Sex: RAINBOW TROUT/MALE, Target Tissue: Type of Lesion: LIVER: TUMOR, Dose [Carcinogen]: 4.16 PPM IN WATER FOR 1 HR) is given as 7%, 16%, -129%, p<0.001; the “tumour outcome (control, treated, inhibition, significance)” value (1000 PPM IN DIET FROM 3 WK PRIOR TO CARCINOGEN TREATMENT TO 3D POST CARCINOGEN TREATMENT (STUDY DURATION: 42 WK), Strain/Sex: RAINBOW TROUT/MALE, Target Tissue: Type of Lesion: STOMACH: TUMOR, Dose [Carcinogen]: 4.16 PPM IN WATER FOR 1 HR) is 97%, 92%, 5%, not significant. In addition, the “tumour outcome (control, treated, inhibition, significance)” value by setting is: (1000 PPM IN DIET FROM 3 WK PRIOR TO CARCINOGEN TREATMENT TO 3 D POST CARCINOGEN TREATMENT (STUDY DURATION: 42 WK), Strain/Sex: RAINBOW TROUT/MALE, Target Tissue: Type of Lesion: SWIM BLADDER: TUMOR, Dose [Carcinogen]: 4.16 PPM IN WATER FOR 1 HR) 14%, 50%, -257%, p<0.001; (2000 PPM IN DIET FOR 17 WK BEGINNING POST CARCINOGEN TREATMENT (STUDY DURATION: 42 WK), Strain/Sex: RAINBOW TROUT/ MALE, Target Tissue: Type of Lesion: STOMACH: TUMOR, Dose [Carcinogen]: 5.5 PPM IN WATER FOR 1 HR) 88%, 19%, 78%, p<0.001; (2000 PPM IN DIET FOR 17 WK BEGINNING POST CARCINOGEN TREATMENT (STUDY DURATION: 42 WK), Strain/Sex: RAINBOW TROUT/ MALE, Target Tissue: Type of Lesion: SWIM BLADDER: TUMOR, Dose [Carcinogen]: 5.5 PPM IN WATER FOR 1 HR) 15%, 6%, 60%, p<0.05; (2000 PPM IN DIET FOR 17 WK BEGINNING POST CARCINOGEN TREATMENT (STUDY DURATION: 42 WK), Strain/Sex: RAINBOW TROUT/MALE, Target Tissue: Type of Lesion: LIVER: TUMOR, Dose [Carcinogen]: 5.5 PPM IN WATER FOR 1 HR) 5%, 10%, -100%, p<0.05; (2000 PPM IN DIET FROM 1 WK PRIOR TO CARCINOGEN TREATMENT TO 3 D POST CARCINOGEN (STUDY DURATION: 42 WK), Strain/Sex: RAINBOW TROUT/ MALE, Target Tissue: Type of Lesion: SWIM-BLADDER: TUMOR, Dose [Carcinogen]: 5.5 PPM IN WATER FOR 1 HR) 15%, 7%, 53%, p<0.05; (2000 PPM IN DIET FROM 1 WK PRIOR TO CARCINOGEN TREATMENT TO 3 D POST CARCINOGEN TREATMENT (STUDY DURATION: 42 WK), Strain/Sex: RAINBOW TROUT/ MALE, Target Tissue: Type of Lesion: LIVER: TUMOR, Dose [Carcinogen]: 5.5 PPM IN WATER FOR 1 HR) 5%, 3%, 40%, not significant.
